In PMC8359193, “Summary of reference chemicals evaluated by the fish short‐term reproduction assay, OECD TG229, using Japanese Medaka, Oryzias latipes” (Journal of Applied Toxicology, 2021):

How the values were obtained:
medaka ARβ (mARβ) = medaka ARβ (mARβ) (Oryzias latipes, UniProt D1MV73); experiment: Medaka ARβ reporter gene assay (RGA), antagonist assay with 50 nM 11KT, HepG2 cells; format: cell-based, Japanese medaka (Oryzias latipes); settings: 50 nM 11KT-induced mARβ activity
Experimental: To support interpretation of the biological effects observed in the FSTRA studies, in vitro RGAs using medaka Esr1 (mEsr1) and medaka ARβ (mARβ) were performed for the 16 test chemicals. In the present study, Esr1 and ARβ, which are ancestral subtypes among Esrs and ARs in Japanese medaka, were selected based on the phylogenetical analyses of Esr and AR with each receptor RGAs (Ogino et al., [2016], [2018]; Tohyama et al., [2015]).
The mARβ RGA in which the agonist and the antagonist assays were performed as same as the mEsr1 RGA was carried out according to the methods previously reported by Lange et al. ([2015]). For the assays, human liver cancer cell line, HepG2, was used as the host cells, and mARβ/pcDNA3.1, MMTV‐Luc, and pRL‐TK‐Rlu were used as mARβ expression vector, reporter vector, and internal control vector, respectively. Other materials and methods, for example, operating procedure, reagents, and incubation conditions, were almost the same as the mEsr1 RGA previously described beside that 11KT (Sigma‐Aldrich, purity 99.0%), a main AR ligand in fish, was competitively spiked at 50 nM into the test medium with test chemicals in antagonist assay. In the agonist and the antagonist assays, 11KT and 2‐hydroxyflutamide (2HFLT; Sigma‐Aldrich, purity 98.5%) were used as positive controls, respectively.
Effect concentrations, that is, EC50 (a half maximal effective concentration) in the agonist assay and IC50 (a half maximal inhibitory concentration) in the antagonist assay, were estimated by nonlinear curve fitting (e.g., three parameters logistic regression curve) using GraphPad Prism (GraphPad Software Inc., La Jolla, CA, USA).

fathead minnow = system: fathead minnow; parameters: method as in Panter et al. (2004); settings: 21-day exposure; ref Panter et al. (2004); cited from earlier work
[1] = system: Japanese medaka (Oryzias latipes); experiment: Fish short-term reproduction assay (FSTRA, OECD TG229), 21-day flow-through exposure; settings: for Fertility rate (%) / Mortality (%) Female / Mortality (%) Male / Number of fertilized eggs / Number of total eggs / SSC Female / SSC Male / VTG (ng/mg of liver) Female / VTG (ng/mg of liver) Male: 21 days; for GSI Female / GSI Male / HSI Female / HSI Male / Length Female / Length Male / Weight Female / Weight Male: at completion of exposure
How it was run: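 Run to OECD TG229: mature NIES-R medaka pairs (3♂/3♀ per vessel, 4 vessels per treatment plus dilution water control) were dosed by continuous flow-through for 21 days. Test concentrations were spaced 2- to 5-fold. Daily spawned eggs were counted under the microscope for fertilized versus unfertilized.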

medaka ARβ (mARβ), sequence (D1MV73 entry or part of it): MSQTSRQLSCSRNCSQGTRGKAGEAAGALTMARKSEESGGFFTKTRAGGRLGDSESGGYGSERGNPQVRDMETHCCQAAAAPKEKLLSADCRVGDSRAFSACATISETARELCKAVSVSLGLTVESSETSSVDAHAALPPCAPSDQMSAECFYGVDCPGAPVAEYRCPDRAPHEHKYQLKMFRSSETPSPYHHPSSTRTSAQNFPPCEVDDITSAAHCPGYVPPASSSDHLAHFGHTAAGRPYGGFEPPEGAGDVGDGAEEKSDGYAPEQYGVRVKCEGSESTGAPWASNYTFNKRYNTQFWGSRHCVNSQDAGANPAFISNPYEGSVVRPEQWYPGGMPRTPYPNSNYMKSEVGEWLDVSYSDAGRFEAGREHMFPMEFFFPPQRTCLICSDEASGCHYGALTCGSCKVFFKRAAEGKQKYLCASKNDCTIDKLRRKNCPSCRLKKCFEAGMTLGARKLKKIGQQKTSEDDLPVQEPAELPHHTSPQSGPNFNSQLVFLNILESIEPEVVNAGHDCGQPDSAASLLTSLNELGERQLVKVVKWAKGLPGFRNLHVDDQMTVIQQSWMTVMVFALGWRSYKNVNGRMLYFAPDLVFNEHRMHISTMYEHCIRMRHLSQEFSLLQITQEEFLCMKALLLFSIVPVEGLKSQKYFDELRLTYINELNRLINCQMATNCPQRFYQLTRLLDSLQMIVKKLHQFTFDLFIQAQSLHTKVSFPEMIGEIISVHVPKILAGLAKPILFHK

SMILES: CC(C)C(=O)Nc1ccc([N+](=O)[O-])c(C(F)(F)F)c1 [FLT, Flutamide]
- mARβ antagonist activity (in words) (medaka ARβ (mARβ)): inhibited
- concentration that significantly reduced the number of nuptial tubercles in males (fathead minnow): 938.6 µg/L
- Fertility rate (%) ([1]; measured conc. 119 μg/L): 94%
- Mortality (%) Female ([1]; measured conc. 119 μg/L): 0%
- Mortality (%) Male ([1]; measured conc. 119 μg/L): 0%
- Number of fertilized eggs ([1]; measured conc. 119 μg/L): 25
- Number of total eggs ([1]; measured conc. 119 μg/L): 26 ± 2.3 /female/day
- SSC Female ([1]; measured conc. 119 μg/L): 0 ± 0
- SSC Male ([1]; measured conc. 119 μg/L): 86 ± 18
- VTG (ng/mg of liver) Female ([1]; measured conc. 119 μg/L): 908 ± 255 ng/mg of liver
- VTG (ng/mg of liver) Male ([1]; measured conc. 119 μg/L): 47.9 ± 41.8 ng/mg of liver
- GSI Female ([1]; measured conc. 119 μg/L): 10.1%
- GSI Male ([1]; measured conc. 119 μg/L): 1.10%
- HSI Female ([1]; measured conc. 119 μg/L): 4.2%
- HSI Male ([1]; measured conc. 119 μg/L): 2.0%
- Length Female ([1]; measured conc. 119 μg/L): 34.2 mm
- Length Male ([1]; measured conc. 119 μg/L): 35.6 mm
- Weight Female ([1]; measured conc. 119 μg/L): 426 mg
- Weight Male ([1]; measured conc. 119 μg/L): 445 mg
- Fertility rate (%) ([1]; measured conc. 248 μg/L): 94%
- Mortality (%) Female ([1]; measured conc. 248 μg/L): 0%
- Mortality (%) Male ([1]; measured conc. 248 μg/L): 0%
- Number of fertilized eggs ([1]; measured conc. 248 μg/L): 26
- Number of total eggs ([1]; measured conc. 248 μg/L): 28 ± 3.1 /female/day
- SSC Female ([1]; measured conc. 248 μg/L): 0 ± 0
- SSC Male ([1]; measured conc. 248 μg/L): 82 ± 15
- VTG (ng/mg of liver) Female ([1]; measured conc. 248 μg/L): 970 ± 200 ng/mg of liver
- VTG (ng/mg of liver) Male ([1]; measured conc. 248 μg/L): 35.8 ± 41.5 ng/mg of liver
- GSI Female ([1]; measured conc. 248 μg/L): 10.9%
- GSI Male ([1]; measured conc. 248 μg/L): 1.10%
- HSI Female ([1]; measured conc. 248 μg/L): 4.6%
- HSI Male ([1]; measured conc. 248 μg/L): 2.1%
- Length Female ([1]; measured conc. 248 μg/L): 33.7 mm
- Length Male ([1]; measured conc. 248 μg/L): 35.0 mm
- Weight Female ([1]; measured conc. 248 μg/L): 428 mg
- Weight Male ([1]; measured conc. 248 μg/L): 394 mg
- Fertility rate (%) ([1]; measured conc. 497 μg/L): 96%
- Mortality (%) Female ([1]; measured conc. 497 μg/L): 0%
- Mortality (%) Male ([1]; measured conc. 497 μg/L): 0%
- Number of fertilized eggs ([1]; measured conc. 497 μg/L): 27
- Number of total eggs ([1]; measured conc. 497 μg/L): 28 ± 3.0 /female/day
- SSC Female ([1]; measured conc. 497 μg/L): 0 ± 0
- SSC Male ([1]; measured conc. 497 μg/L): 82 ± 16
- VTG (ng/mg of liver) Female ([1]; measured conc. 497 μg/L): 812 ± 159 ng/mg of liver
- VTG (ng/mg of liver) Male ([1]; measured conc. 497 μg/L): 38.7 ± 44.8 ng/mg of liver
- GSI Female ([1]; measured conc. 497 μg/L): 10.3%
- GSI Male ([1]; measured conc. 497 μg/L): 1.20%
- HSI Female ([1]; measured conc. 497 μg/L): 4.8%
- HSI Male ([1]; measured conc. 497 μg/L): 1.9%
- Length Female ([1]; measured conc. 497 μg/L): 34.3 mm
- Length Male ([1]; measured conc. 497 μg/L): 35.9 mm
- Weight Female ([1]; measured conc. 497 μg/L): 470 mg
- Weight Male ([1]; measured conc. 497 μg/L): 429 mg
- Fertility rate (%) ([1]; measured conc. 925 μg/L): 93%
- Mortality (%) Female ([1]; measured conc. 925 μg/L): 0%
- Mortality (%) Male ([1]; measured conc. 925 μg/L): 0%
- Number of fertilized eggs ([1]; measured conc. 925 μg/L): 27
- Number of total eggs ([1]; measured conc. 925 μg/L): 29 ± 3.1 /female/day
- SSC Female ([1]; measured conc. 925 μg/L): 0 ± 0
- SSC Male ([1]; measured conc. 925 μg/L): 93 ± 16
- VTG (ng/mg of liver) Female ([1]; measured conc. 925 μg/L): 830 ± 131 ng/mg of liver
- VTG (ng/mg of liver) Male ([1]; measured conc. 925 μg/L): 50.8 ± 53.8 ng/mg of liver
- GSI Female ([1]; measured conc. 925 μg/L): 11.5%
- GSI Male ([1]; measured conc. 925 μg/L): 1.10%
- HSI Female ([1]; measured conc. 925 μg/L): 4.5%
- HSI Male ([1]; measured conc. 925 μg/L): 2.0%
- Length Female ([1]; measured conc. 925 μg/L): 34.2 mm
- Length Male ([1]; measured conc. 925 μg/L): 35.8 mm
- Weight Female ([1]; measured conc. 925 μg/L): 453 mg
- Weight Male ([1]; measured conc. 925 μg/L): 416 mg
- effect on fecundity (number of total eggs), in words ([1]; within the test concentrations, 21-day exposure): No effect
